Data reported in PubChem BioAssay AID274 (DTP/NCI, 2004).
“And” between values parts separate entries of the source, which are not always exact repeats. Identical values can stand only once. Toxic doses and inconclusive results are not listed. Numbered stars: 1 amine (or outer) side, 2 acyl side, 3 side chain; on linkers, the order of the positions; unused ones are H or OH. Square brackets hold non-standard residues; d marks the D form. Peptide text beside a SMILES is read from it. * marks the point of attachment. X2 = CCC(=O)CC1CC(C)CC(C(=O)[*:2])N1[*:1]; X1 = CCCCCCCCC(C)C(=O)*; Aib = CC(C)(N)C(=O)O; X3 = CC(CN(C)CCO)N*

Tested on: BDF1 mice, Lewis lung carcinoma iv, survival T/C
Experiment: NCI In Vivo Anticancer Drug Screen. Data for tumor model Lewis Lung Carcinoma (intravenous) in B6D2F1 (BDF1) mice
Details: endpoint: median survival time, schedule: Q01DX009 (ip), higher = longer survival
Protocol: The antitumor activity of compounds was measured in mice bearing transplantable tumors. Survival or tumor size were measured and the results are expressed as the measurement made in the treated group (T) divided by the measurement made in the vehicle treated control group (C). The tumor model used in this assay is Lewis Lung Carcinoma (intravenous) in B6D2F1 (BDF1) mice

[1] = dose: 25.0 mg/kg/injection, vehicle: Klucel (hydroxypropylcellulose) (HPC)
[2] = dose: 50.0 mg/kg/injection, vehicle: Klucel (hydroxypropylcellulose) (HPC)
[3] = dose: 100.0 mg/kg/injection, vehicle: Klucel (hydroxypropylcellulose) (HPC)
[4] = dose: 25.0 mg/kg/injection, vehicle: saline
[5] = dose: 12.5 mg/kg/injection, vehicle: saline with Tween-80
[6] = dose: 25.0 mg/kg/injection, vehicle: saline with Tween-80
[7] = dose: 50.0 mg/kg/injection, vehicle: saline with Tween-80

Structure (SMILES): CC1CCC(n2cnc3c(Cl)ncnc32)O1 (configuration not stated)
- T/C (dose: 12.0 mg/kg/injection, vehicle: Klucel (hydroxypropylcellulose) (HPC)): 100 % of control
- T/C [1]: 109 % of control
- T/C [2]: 98 % of control
- T/C [3]: 104 % of control
- T/C (dose: 200.0 mg/kg/injection, vehicle: Klucel (hydroxypropylcellulose) (HPC)): 96 % of control

Structure (SMILES): c1nc(N2CC2)c2cnn(C3CCCCO3)c2n1 (configuration not stated)
- T/C [1]: 107 % of control
- T/C [2]: 100 % of control
- T/C [3]: 101 % of control

Structure (SMILES): O=C(O)CC(=O)O.[NH-]CC[NH-].[Pt+2]
- T/C (dose: 6.25 mg/kg/injection, vehicle: saline): 111 % of control
- T/C [4]: 156 % of control

Structure (SMILES): O=C1C(Cl)=C(Cl)C(=O)C2=C1C1c3ccccc3C2c2ccccc21
- T/C [5]: 104 % of control
- T/C [6]: 103 % of control
- T/C [7]: 103 % of control

Structure (SMILES): O=C1NC(O)c2ccccc2O1 (configuration not stated)
- T/C [5]: 108 % of control
- T/C [6]: 103 % of control
- T/C [7]: 105 % of control
- T/C (dose: 100.0 mg/kg/injection, vehicle: saline with Tween-80): 101 % of control
- T/C (dose: 200.0 mg/kg/injection, vehicle: saline with Tween-80): 112 % of control
- T/C (dose: 400.0 mg/kg/injection, vehicle: saline with Tween-80): 102 % of control

Structure (SMILES): O=C(O)C(CSC(c1ccccc1)(c1ccccc1)c1ccccc1)N=Cc1cccs1 (configuration not stated)
- T/C (dose: 12.5 mg/kg/injection, vehicle: saline): 107 % of control
- T/C [4]: 102 % of control
- T/C (dose: 50.0 mg/kg/injection, vehicle: saline): 101 % of control

Structure (SMILES): CC(C)NCC(O)COc1cccc2ccccc12 (configuration not stated)
- T/C (dose: 8.0 mg/kg/injection, vehicle: Klucel (hydroxypropylcellulose) (HPC)): 90 % of control
- T/C (dose: 16.0 mg/kg/injection, vehicle: Klucel (hydroxypropylcellulose) (HPC)): 96 % of control
- T/C (dose: 32.0 mg/kg/injection, vehicle: Klucel (hydroxypropylcellulose) (HPC)): 92 % of control
- T/C (dose: 64.0 mg/kg/injection, vehicle: Klucel (hydroxypropylcellulose) (HPC)): 100 % of control

Structure (SMILES): Nc1nc(SCc2ccccc2)c2ncn(C3OC(CO)CC3O)c2n1 (configuration not stated)
- T/C [2]: 109 % of control

Structure (SMILES): CCCCCCCCC(C)C(=O)N1CCCC1C(=O)N1C(CC(=O)CC)CC(C)CC1C(=O)NC(C)C(=O)NC(C)(C)C(=O)NC(C)(C)C(=O)NC(C(=O)NC(C)C(=O)NC(C)(C)C(=O)NC(C)(C)C(=O)NC(C)CN(C)CCO)C(C)CC (configuration not stated) (X1-P[X2]A[Aib][Aib]IA[Aib][Aib]-X3; configuration not given here)
- T/C (dose: 0.31 mg/kg/injection, vehicle: Klucel (hydroxypropylcellulose) (HPC)): 105 % of control
- T/C (dose: 0.62 mg/kg/injection, vehicle: Klucel (hydroxypropylcellulose) (HPC)): 97 % of control
- T/C (dose: 1.25 mg/kg/injection, vehicle: Klucel (hydroxypropylcellulose) (HPC)): 99 % of control
- T/C (dose: 2.5 mg/kg/injection, vehicle: Klucel (hydroxypropylcellulose) (HPC)): 104 % of control
- T/C (dose: 5.0 mg/kg/injection, vehicle: Klucel (hydroxypropylcellulose) (HPC)): 104 % of control

Structure (SMILES): CC1CN1CC(O)C(O)CN1CC1C (configuration not stated)
- T/C (dose: 0.25 mg/kg/injection, vehicle: saline): 99 % of control
- T/C (dose: 0.5 mg/kg/injection, vehicle: saline): 111 % of control and 116 % of control
- T/C (dose: 1.0 mg/kg/injection, vehicle: saline): 121 % of control and 116 % of control
- T/C (dose: 2.0 mg/kg/injection, vehicle: saline): 123 % of control

Structure (SMILES): O=[N+]([O-])c1cc([N+](=O)[O-])c(Nn2c3ccccc3c3ccccc32)c([N+](=O)[O-])c1
- T/C [5]: 114 % of control
- T/C [6]: 105 % of control
- T/C [7]: 91 % of control

Structure (SMILES): CCc1ncnc2cc(OCC3CO3)c(OC)cc12 (configuration not stated)
- T/C (dose: 6.25 mg/kg/injection, vehicle: suspension in saline): 98 % of control
- T/C (dose: 12.5 mg/kg/injection, vehicle: suspension in saline): 104 % of control
- T/C (dose: 25.0 mg/kg/injection, vehicle: suspension in saline): 93 % of control

Structure (SMILES): [N-]=[N+]=C1N=CN=C1c1ncn[nH]1
- T/C (dose: 3.12 mg/kg/injection, vehicle: Klucel (hydroxypropylcellulose) (HPC)): 98 % of control
- T/C (dose: 6.25 mg/kg/injection, vehicle: Klucel (hydroxypropylcellulose) (HPC)): 100 % of control
- T/C (dose: 12.5 mg/kg/injection, vehicle: Klucel (hydroxypropylcellulose) (HPC)): 95 % of control
- T/C [1]: 120 % of control
- T/C [2]: 97 % of control
